Columns and labels:
Test in all cases: cross-linking in cells, immunoblot
Assay type in all cases: cell-based
Conditions in all cases: covalent; living yeast, toxic concentrations
Eug1 = molecular target: T1, Eug1 (Saccharomyces cerevisiae, UniProt P32474)
T1 sequence (P32474 30-517): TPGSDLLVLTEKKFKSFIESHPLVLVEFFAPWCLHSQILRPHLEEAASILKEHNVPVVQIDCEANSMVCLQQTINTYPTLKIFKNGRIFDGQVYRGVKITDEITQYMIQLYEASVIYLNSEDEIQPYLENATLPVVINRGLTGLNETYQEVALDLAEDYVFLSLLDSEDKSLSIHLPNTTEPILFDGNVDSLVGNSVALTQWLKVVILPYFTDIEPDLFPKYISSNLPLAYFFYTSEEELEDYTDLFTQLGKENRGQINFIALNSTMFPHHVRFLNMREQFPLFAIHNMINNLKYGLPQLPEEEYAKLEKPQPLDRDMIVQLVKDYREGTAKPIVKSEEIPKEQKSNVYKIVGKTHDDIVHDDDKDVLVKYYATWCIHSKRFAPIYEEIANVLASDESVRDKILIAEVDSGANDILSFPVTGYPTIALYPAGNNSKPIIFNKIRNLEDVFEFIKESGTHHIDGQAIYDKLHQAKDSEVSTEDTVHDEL

Mpd2 = molecular target: T2, Mpd2 (Saccharomyces cerevisiae, UniProt Q99316)
T2 sequence (Q99316 23-277): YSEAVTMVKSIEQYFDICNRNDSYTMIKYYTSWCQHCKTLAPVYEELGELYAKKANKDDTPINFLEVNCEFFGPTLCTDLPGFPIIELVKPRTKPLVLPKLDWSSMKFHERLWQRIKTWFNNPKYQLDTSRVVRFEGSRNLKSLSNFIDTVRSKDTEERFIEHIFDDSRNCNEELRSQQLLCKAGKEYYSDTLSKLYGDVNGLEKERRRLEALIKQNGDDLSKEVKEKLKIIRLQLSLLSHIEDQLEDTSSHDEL

Mpd1 = molecular target: T3, Mpd1 (Saccharomyces cerevisiae, UniProt Q12404)
T3 sequence (Q12404 22-318): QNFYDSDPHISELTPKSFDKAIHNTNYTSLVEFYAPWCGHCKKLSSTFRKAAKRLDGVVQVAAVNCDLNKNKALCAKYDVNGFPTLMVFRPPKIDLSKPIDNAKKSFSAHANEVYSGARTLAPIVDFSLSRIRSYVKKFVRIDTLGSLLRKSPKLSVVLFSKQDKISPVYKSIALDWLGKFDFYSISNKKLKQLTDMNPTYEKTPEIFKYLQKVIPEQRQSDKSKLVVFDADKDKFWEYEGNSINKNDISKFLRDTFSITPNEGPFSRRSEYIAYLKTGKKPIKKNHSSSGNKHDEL

Pdi1 = molecular target: T4, Pdi1 (Saccharomyces cerevisiae, UniProt P17967)
T4 sequence (P17967 29-522): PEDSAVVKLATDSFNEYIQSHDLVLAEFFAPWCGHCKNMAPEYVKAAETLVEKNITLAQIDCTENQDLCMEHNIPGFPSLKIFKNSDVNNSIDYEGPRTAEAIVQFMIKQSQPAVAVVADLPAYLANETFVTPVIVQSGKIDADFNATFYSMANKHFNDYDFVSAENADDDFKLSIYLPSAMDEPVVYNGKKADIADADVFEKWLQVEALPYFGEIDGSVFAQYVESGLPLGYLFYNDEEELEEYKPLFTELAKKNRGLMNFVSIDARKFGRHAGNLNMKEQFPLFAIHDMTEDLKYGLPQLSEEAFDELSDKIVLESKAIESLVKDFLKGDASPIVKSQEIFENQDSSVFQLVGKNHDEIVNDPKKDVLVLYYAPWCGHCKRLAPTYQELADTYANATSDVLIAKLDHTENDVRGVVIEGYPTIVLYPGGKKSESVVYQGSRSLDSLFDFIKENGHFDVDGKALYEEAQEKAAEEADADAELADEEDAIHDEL

In the case of `C1OC1C1CO1` (stereo not shown) [1,2,3,4-diepoxybutane], the “cross-linking in cells, immunoblot” value (Eug1) was “Each of these proteins also underwent protein cross-linking in cells treated with toxic concentrations”, the “cross-linking in cells, immunoblot” value (Mpd2) was “Each of these proteins also underwent protein cross-linking in cells treated with toxic concentrations” and the “cross-linking in cells, immunoblot” value (Mpd1) was “Each of these proteins also underwent protein cross-linking in cells treated with toxic concentrations”. For the same compound, the “cross-linking in cells, immunoblot” value (Pdi1) was “Each of these proteins also underwent protein cross-linking in cells treated with toxic concentrations”.

— PMC8860869 (Chemical research in toxicology, 2022)
